According to the supplement of paper PMC10331698:
± gives the standard deviation of the averaged measurements.

Key:
Test in all cases: level (log10 ratio to DMSO vehicle control); higher = higher biomarker level / cell amount than vehicle control
Conditions in all cases: in DMSO
[1] = compound: FC(F)(F)C(F)(C(F)(F)F)C(F)(F)C(F)(F)CC1CO1 [3-(Perfluoro-3-methylbutyl)-1,2-propenoxide]
Protocol: (§1)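 BioMAP Diversity Plus panel of 12 human primary cell co-culture systems (3C, 4H, LPS, SAg, BT, BF4T, BE3C, CASM3C, HDF3CGF, KF3CT, MyoF, Mphg). Compounds were added 1 h before stimulation and left for 24 h (MyoF 48 h; BT 72 h for soluble read-outs or 6 d for IgG). Biomarkers were read by ELISA, cytotoxicity by SRB, PBMC viability and proliferation by Alamar Blue. Each well value was divided by the mean of 8 DMSO control wells on the same plate and log10 transformed; duplicate blinded samples were tested at 4 concentrations.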

[2] = compound: FC(F)(F)C(F)(F)C(F)(F)C(F)(F)C(F)(F)CCI [1-Iodo-1H,1H,2H,2H-perfluoroheptane]
Protocol: as §1

[3] = compound: CCN(CCO)S(=O)(=O)C(F)(F)C(F)(F)C(F)(F)C(F)(F)C(F)(F)C(F)(F)C(F)(F)C(F)(F)F [N-Ethyl-N-(2-hydroxyethyl)perfluorooctanesulfonamide]
Protocol: as §1

[4] = compound: O=C(O)C(F)(F)C(F)(F)C(F)(F)C(F)(F)C(F)(F)C(F)(F)F [Perfluoroheptanoic acid]
Protocol: as §1

[5] = compound: FC(F)(F)C(F)(F)C(F)(F)C(F)(F)C(F)(F)C(F)(F)C(F)(F)C(F)(F)CCS [2-(Perfluorooctyl)ethanthiol]
Protocol: as §1

[6] = compound: NCC(F)(F)C(F)(F)C(F)(F)C(F)(F)C(F)(F)C(F)(F)C(F)(F)F [1H,1H-Perfluorooctylamine]
Protocol: as §1

[7] = compound: NC(=O)C(F)(F)C(F)(F)C(F)(F)F [Heptafluorobutyramide]
Protocol: as §1

Row | Test System | level (log10) ([1]; 6700 nM) | level (log10) ([1]; 20000 nM) | level (log10) ([2]; 6700 nM) | level (log10) ([2]; 20000 nM) | level (log10) ([2]; 60000 nM) | level (log10) ([3]; 6700 nM) | level (log10) ([3]; 20000 nM) | level (log10) ([4]; 6700 nM) | level (log10) ([4]; 20000 nM) | level (log10) ([4]; 60000 nM) | level (log10) ([5]; 6700 nM) | level (log10) ([5]; 20000 nM) | level (log10) ([6]; 6700 nM) | level (log10) ([6]; 20000 nM) | level (log10) ([6]; 60000 nM) | level (log10) ([7]; 6700 nM) | level (log10) ([7]; 20000 nM) | level (log10) ([7]; 60000 nM)
1 | HDF3CGF:CXCL10/IP-10 | 0.003 ± 0.021 | -0.034 ± 0.075 | -0.011 ± 0.0099 | -0.053 ± 0.0071 | -0.11 ± 0.023 | -0.0725 ± 0.05 | -0.206 ± 0.0057 | -0.0295 ± 0.046 | -0.015 ± 0.016 | -0.0295 ± 0.0092 | -0.027 ± 0.025 | -0.0495 ± 0.005 | 0.0115 ± 0.03 | -0.006 ± 0.011 | -0.0005 ± 0.00071 | 0.007 ± 0.0099 | 0 ± 0.0057 | 0.0035 ± 0.011
2 | CASM3C:PAI-I | -0.0025 ± 0.0021 | 0.0045 ± 0.011 | 0.003 ± 0.0042 | 0.001 ± 0.0014 | 0.007 ± 0.0042 | 0 ± 0.0071 | 0.004 ± 0.0085 | -0.0005 ± 0.018 | 0.0035 ± 0.011 | 0.0105 ± 0.015 | -0.014 ± 0.017 | 0.0055 ± 0.026 | -0.0055 ± 0.012 | 0.0025 ± 0.0064 | -0.0015 ± 0.005 | -0.0045 ± 0.0021 | -0.0045 ± 0.012 | 0.0105 ± 0.0035
3 | 3C:CD54/ICAM-1 | -0.0055 ± 0.00071 | -0.0025 ± 0.0064 | 0.0055 ± 0.021 | 0.0015 ± 0.0092 | 0.0085 ± 0.005 | 0.03 ± 0.013 | 0.075 ± 0.065 | 0.0025 ± 0.0035 | -0.0095 ± 0.0092 | 0.008 ± 0.023 | -0.0055 ± 0.012 | 0.0005 ± 0.016 | -0.0105 ± 0.028 | -0.0125 ± 0.039 | -0.015 ± 0.025 | -0.023 ± 0.02 | -0.008 ± 0.0014 | -0.019 ± 0.016
4 | CASM3C:Serum Amyloid A | -0.0235 ± 0.012 | 0.0035 ± 0.047 | 0.011 ± 0.023 | 0.003 ± 0.0014 | -0.0195 ± 0.026 | 0.0875 ± 0.037 | 0.129 ± 0.042 | -0.006 ± 0.021 | -0.013 ± 0.04 | 0.022 ± 0.082 | -0.0145 ± 0.013 | 0.002 ± 0.047 | 0.0345 ± 0.036 | 0.043 ± 0.069 | 0.015 ± 0.061 | -0.0555 ± 0.023 | -0.0445 ± 0.042 | -0.0065 ± 0.096
5 | MyoF:CXCL8/IL-8 | 0.0045 ± 0.00071 | 0.0185 ± 0.0021 | -0.0015 ± 0.019 | 0.028 ± 0.018 | 0.043 ± 0.038 | -0.193 ± 0.011 | -0.12 ± 0.022 | 0.002 ± 0.0042 | 0.0205 ± 0.005 | 0.0175 ± 0.035 | -0.0085 ± 0.011 | 0.007 ± 0.016 | 0.0025 ± 0.021 | -0.0095 ± 0.0035 | -0.002 ± 0.023 | -0.0015 ± 0.023 | -0.014 ± 0.011 | 0.002 ± 0.0099
6 | MyoF:alpha-SM Actin | -0.009 ± 0.028 | -0.0295 ± 0.0064 | -0.0265 ± 0.029 | -0.003 ± 0.018 | -0.009 ± 0.0071 | 0.0845 ± 0.023 | -0.235 ± 0.057 | -0.028 ± 0.035 | -0.0365 ± 0.022 | -0.022 ± 0.024 | -0.0145 ± 0.036 | -0.103 ± 0.037 | -0.017 ± 0.075 | 0.0285 ± 0.0078 | 0.042 | 0.0105 ± 0.033 | -0.004 ± 0.033 | 0.0015 ± 0.018
7 | KF3CT:MMP-9 | -0.016 ± 0.03 | -0.0265 ± 0.039 | -0.017 ± 0.011 | -0.0265 ± 0.025 | -0.029 ± 0.021 | 0.01 ± 0.0085 | -0.0875 ± 0.015 | -0.0065 ± 0.0078 | 0.0165 ± 0.026 | 0.059 ± 0.025 | -0.029 ± 0.035 | -0.0275 ± 0.037 | 0.0085 ± 0.0092 | 0.0025 ± 0.0035 | 0.0065 ± 0.005 | 0.002 | -0.0005 ± 0.00071 | 0.0035 ± 0.00071
8 | KF3CT:CXCL8/IL-8 | -0.0155 ± 0.0078 | 0.0035 ± 0.013 | 0.007 ± 0.035 | 0.028 ± 0.02 | 0.06 ± 0.011 | -0.0975 ± 0.012 | -0.0935 ± 0.0064 | -0.0055 ± 0.0064 | 0.002 | 0.0105 ± 0.00071 | -0.026 ± 0.034 | -0.028 ± 0.037 | -0.0205 ± 0.035 | -0.0295 ± 0.029 | -0.014 ± 0.0085 | 0.003 | 0.002 ± 0.0085 | 0.0095 ± 0.012
9 | KF3CT:SRB | -0.004 ± 0.0042 | -0.0085 ± 0.0064 | 0.002 ± 0.0071 | -0.0045 ± 0.00071 | -0.0065 ± 0.0078 | -0.015 | -0.0305 ± 0.0092 | -0.0065 ± 0.005 | -0.006 ± 0.0085 | 0.007 ± 0.016 | -0.0015 ± 0.0021 | 0.002 ± 0.0042 | -0.01 ± 0.011 | -0.0065 ± 0.013 | 0.0065 ± 0.035 | -0.0055 ± 0.0035 | 0.0025 ± 0.0078 | -0.001 ± 0.011
10 | HDF3CGF:CXCL8/IL-8 | 0.001 ± 0.013 | 0.006 ± 0.0028 | 0.001 ± 0.0099 | 0.011 ± 0.0028 | 0.0225 ± 0.0064 | 0.0345 ± 0.016 | 0.011 ± 0.0071 | -0.0055 ± 0.0078 | -0.0055 ± 0.0064 | 0.0095 ± 0.013 | -0.004 ± 0.0099 | -0.0095 ± 0.00071 | -0.0025 ± 0.005 | -0.018 ± 0.0099 | -0.002 ± 0.0042 | -0.003 ± 0.0057 | 0.002 ± 0.0014 | 0.0045 ± 0.012
11 | lMphg:CD62E/E-Selectin | 0.0085 ± 0.019 | 0.0025 ± 0.013 | -0.021 ± 0.067 | -0.0215 ± 0.018 | -0.028 ± 0.0028 | 0.0935 ± 0.0078 | 0.14 ± 0.0099 | -0.026 ± 0.0028 | 0 ± 0.024 | 0.025 ± 0.018 | -0.013 ± 0.013 | -0.0295 ± 0.011 | 0.0195 ± 0.023 | 0.0085 ± 0.015 | 0.013 ± 0.03 | 0.035 ± 0.051 | -0.009 ± 0.064 | -0.0285 ± 0.054
12 | MyoF:Collagen III | -0.004 ± 0.0099 | -0.0275 ± 0.0078 | 0.0085 ± 0.029 | 0.0185 ± 0.0092 | 0.041 ± 0.013 | -0.0045 ± 0.022 | -0.228 ± 0.17 | -0.013 ± 0.018 | -0.011 ± 0.018 | -0.0055 ± 0.0078 | -0.0105 ± 0.015 | -0.0345 ± 0.018 | -0.007 ± 0.0057 | 0.003 ± 0.014 | 0.01 | -0.0025 ± 0.0092 | 0.0025 ± 0.011 | -0.004 ± 0.02
13 | CASM3C:CD87/uPAR | -0.013 ± 0.016 | 0.002 ± 0.017 | 0.008 ± 0.016 | -0.0075 ± 0.0078 | -0.0265 ± 0.037 | -0.0595 ± 0.0092 | -0.09 ± 0.038 | -0.0005 ± 0.0078 | -0.019 ± 0.031 | -0.0055 ± 0.036 | -0.0395 ± 0.053 | -0.0205 ± 0.04 | -0.044 ± 0.083 | -0.0315 ± 0.043 | 0.025 ± 0.047 | -0.0065 ± 0.026 | -0.0115 ± 0.032 | -0.033 ± 0.054
14 | HDF3CGF:M-CSF | -0.0115 ± 0.018 | -0.0145 ± 0.012 | -0.0275 ± 0.053 | -0.0415 ± 0.011 | -0.198 ± 0.11 | -0.101 ± 0.013 | -0.27 ± 0.0071 | -0.009 ± 0.0099 | 0.0025 ± 0.015 | 0.01 ± 0.0014 | -0.0185 ± 0.013 | -0.014 ± 0.0099 | -0.0255 ± 0.0064 | -0.031 ± 0.061 | -0.027 ± 0.069 | -0.0145 ± 0.00071 | -0.009 | 0.0165 ± 0.035
15 | MyoF:Collagen I | 0 ± 0.0099 | -0.017 ± 0.017 | -0.0065 ± 0.012 | 0.007 ± 0.0042 | 0.0375 ± 0.0035 | 0.042 ± 0.0028 | -0.155 ± 0.029 | -0.0225 ± 0.011 | -0.006 | 0.0055 ± 0.043 | -0.001 ± 0.042 | -0.0265 ± 0.029 | 0.012 ± 0.014 | -0.016 ± 0.0042 | 0.013 ± 0.021 | -0.015 ± 0.013 | -0.0105 ± 0.00071 | -0.014 ± 0.0099
16 | lMphg:CCL3/MIP-1alpha | -0.007 ± 0.0042 | 0.0345 ± 0.023 | 0.0165 ± 0.032 | 0.003 ± 0.021 | 0.0185 ± 0.08 | 0.0325 ± 0.035 | 0.112 ± 0.013 | -0.0265 ± 0.013 | -0.0075 ± 0.0078 | 0.018 ± 0.017 | -0.019 ± 0.014 | -0.027 ± 0.014 | 0 ± 0.0099 | -0.0215 ± 0.016 | 0.0035 ± 0.044 | -0.0235 ± 0.039 | -0.035 ± 0.024 | -0.0015 ± 0.00071
